Values of other authors, collected in PMC5036423 (CPT: Pharmacometrics & Systems Pharmacology, 2016).

Experiments:
[1] = test system: intact PTH; settings: first-in-human phase I study
[2] = 4 weeks of 5 mg TIW i.v. dosing, patients on HD

Accumulation in Cmax [2]: approximately twofold
Accumulation in area under the curve over 48 hours [2]: threefold
Plasma exposure (Cmax and area under the curve over 48 hours) versus dose (TIW i.v. administration in patients on HD): increased proportionally with the dose
Fraction of the drug eliminated by TIW HD (patients receiving TIW hemodialysis): ~50%
Structure (SMILES): CC(=O)N[C@H](CSSC[C@H](N)C(=O)O)C(=O)N[C@H](C)C(=O)N[C@H](CCCNC(=N)N)C(=O)N[C@H](CCCNC(=N)N)C(=O)N[C@H](CCCNC(=N)N)C(=O)N[C@H](C)C(=O)N[C@H](CCCNC(=N)N)C(N)=O [etelcalcetide]
Effect on intact PTH in healthy subjects [1]: showed intact PTH lowering effect
